Measurements published in ChEMBL document CHEMBL1128445, “Antiinflammatory 4,5-diarylpyrroles. 2. Activity as a function of cyclooxygenase-2 inhibition” (J Med Chem, 1995).

How the values were obtained:
[1] = test system: Rattus norvegicus; assay: The compound was tested for maximum blood level reached in rats at 15.9 uM/Kg after intravenous administration.; format: ADME, organism-based; set-up: dose 15.9 uM/Kg, route intravenous; conditions: in vivo, 15.9 µmol/kg
[2] = test system: Rattus norvegicus; assay: The compound was tested for maximum blood level reached in rats at 15.9 uM/Kg after peroral administration.; format: ADME, organism-based; set-up: dose 15.9 uM/Kg, route oral; conditions: in vivo, po
[3] = test system: Rattus norvegicus; assay: In vivo effective dose required for antiinflammatory activity in rat adjuvant arthritis model; format: functional
[4] = biological target: T1, Prostaglandin G/H synthase 1 (Ovis aries, UniProt P05979); assay: Tested for inhibitory activity against Prostaglandin G/H synthase 1 from ovine
T1 sequence (P05979 whole entry): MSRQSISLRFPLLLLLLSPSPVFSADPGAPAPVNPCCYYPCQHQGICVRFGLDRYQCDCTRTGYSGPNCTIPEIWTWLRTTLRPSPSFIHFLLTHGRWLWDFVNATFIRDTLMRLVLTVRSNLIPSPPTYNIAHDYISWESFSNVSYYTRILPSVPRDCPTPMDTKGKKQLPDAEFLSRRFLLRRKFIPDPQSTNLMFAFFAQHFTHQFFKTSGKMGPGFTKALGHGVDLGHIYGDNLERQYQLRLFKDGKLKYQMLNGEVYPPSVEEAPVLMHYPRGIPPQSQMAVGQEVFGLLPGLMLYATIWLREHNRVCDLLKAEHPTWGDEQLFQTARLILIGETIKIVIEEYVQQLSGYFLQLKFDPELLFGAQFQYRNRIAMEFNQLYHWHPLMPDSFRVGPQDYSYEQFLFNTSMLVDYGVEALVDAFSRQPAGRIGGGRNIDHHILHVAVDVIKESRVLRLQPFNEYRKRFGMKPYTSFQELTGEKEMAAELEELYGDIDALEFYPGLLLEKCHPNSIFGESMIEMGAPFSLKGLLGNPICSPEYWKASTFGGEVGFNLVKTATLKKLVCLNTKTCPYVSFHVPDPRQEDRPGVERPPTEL

Row | Compound | Cmax [1] [uM l-1] | Cmax ([2]; 15.9 µmol/kg) [uM l-1] | IC50 [4] [µM] | Cmax [2] [uM l-1] | ED50 [3] [µM]
1 | Cn1ccc(-c2ccc(F)cc2)c1-c1ccc(S(C)(=O)=O)cc1 | – | – | > 300 | – | >303
2 | Cn1c(Cl)c(Cl)c(-c2ccc(F)cc2)c1-c1ccc(S(C)(=O)=O)cc1 | – | – | 650 | – | 12.55
3 | CCCCC1C(=O)N(c2ccccc2)N(c2ccccc2)C1=O [PHENYLBUTAZONE] | – | – | 384 | – | 32.4
4 | CC(C)(C)OC(=O)n1c(Br)cc(-c2ccc(F)cc2)c1-c1ccc(S(C)(=O)=O)cc1 | – | – | > 300 | – | 32
5 | CS(=O)(=O)c1ccc(-c2[nH]c(I)c(I)c2-c2ccc(F)cc2)cc1 | – | – | 127 | – | 72.82
6 | CC(=O)n1c(Br)cc(-c2ccc(F)cc2)c1-c1ccc(S(C)(=O)=O)cc1 | – | – | – | – | 82.95
7 | CC(=O)Oc1ccccc1C(=O)O [ASPIRIN] | – | – | – | – | 1942.7
8 | COc1ccc2c(c1)c(CC(=O)O)c(C)n2C(=O)c1ccc(Cl)cc1 [INDOMETHACIN] | – | – | – | – | 0.84
9 | CC(C)Cc1ccc(C(C)C(=O)O)cc1 (stereo not given) [IBUPROFEN] | – | – | – | – | 484.8
10 | CS(=O)(=O)c1ccc(-c2[nH]c([N+](=O)[O-])cc2-c2ccc(F)cc2)cc1 | – | – | – | – | 24.97
11 | CS(=O)(=O)c1ccc(-c2[nH]c(Br)c(Cl)c2-c2ccc(F)cc2)cc1 | – | – | – | – | 9.98
12 | CN1C(C(=O)Nc2ccccn2)=C(O)c2ccccc2S1(=O)=O [PIROXICAM] | – | – | – | – | 1.3
13 | Cn1c(Br)c(Br)c(-c2ccc(F)cc2)c1-c1ccc(S(C)(=O)=O)cc1 | – | – | 767 | – | 8.54

Continued, in another order:

Row | Cmax [1] [uM l-1] | Cmax ([2]; 15.9 µmol/kg) [uM l-1] | IC50 [4] [µM] | Cmax [2] [uM l-1] | Compound | ED50 [3] [µM]
14 | 4.1 | 2.9 | – | – | CS(=O)(=O)c1ccc(-c2[nH]c(C#N)cc2-c2ccc(F)cc2)cc1 | 3.82
15 | – | – | 219 | – | CS(=O)(=O)c1ccc(-c2[nH]c(SC#N)cc2-c2ccc(F)cc2)cc1 | 10.47
16 | – | – | 580 | – | CS(=O)(=O)c1ccc(-c2[nH]c(C(=O)C(F)(F)F)cc2-c2ccc(F)cc2)cc1 | 47.16
17 | – | – | 373 | < 0.1 | CS(=O)(=O)c1ccc(-c2[nH]ccc2-c2ccc(F)cc2)cc1 | >317
18 | 2 | 3 | 132 | – | CS(=O)(=O)c1ccc(-c2[nH]c(Br)cc2-c2ccc(F)cc2)cc1 | 2.66
19 | – | – | 44 | – | CS(=O)(=O)c1ccc(-c2[nH]c(Cl)c(Br)c2-c2ccc(F)cc2)cc1 | 7.93
20 | 1.4 | 2.3 | 94 | – | CS(=O)(=O)c1ccc(-c2[nH]c(Cl)cc2-c2ccc(F)cc2)cc1 | –
21 | – | – | 20 | – | CS(=O)(=O)c1ccc(-c2[nH]c(Cl)c(Cl)c2-c2ccc(F)cc2)cc1 | 3.9
22 | 2.9 | 1.5 | 516 | – | Cn1c(Br)cc(-c2ccc(F)cc2)c1-c1ccc(S(C)(=O)=O)cc1 | 4.16
23 | – | – | 36 | – | CSc1cc(-c2ccc(F)cc2)c(-c2ccc(S(C)(=O)=O)cc2)[nH]1 | 4.89
24 | – | – | > 300 | – | CS(=O)(=O)c1ccc(-c2[nH]c(I)cc2-c2ccc(F)cc2)cc1 | 49.86
25 | – | – | > 300 | – | CS(=O)(=O)c1ccc(-c2[nH]c(S(C)(=O)=O)cc2-c2ccc(F)cc2)cc1 | 93.02
